# Numbered stars: 1 amine (or outer) side, 2 acyl side, 3 side chain; on linkers, the order of the positions; unused ones are H or OH. Bridge positions count the residues as written; N and C are the ends. Square brackets hold non-standard residues; d marks the D form. Side chains are listed from the residue outwards. Peptide text beside a SMILES is read from it. * marks the point of attachment. C18 diacid = O=C(O)CCCCCCCCCCCCCCCCC(=O)*; γGlu = O=C(O)[C@H](CCC(=O)[*:2])N[*:1]; αMeF = C[C@](N)(Cc1ccccc1)C(=O)O; Dab = NCC[C@H](N)C(=O)O; AEEA = NCCOCCOCC(=O)O
# Assays:
# [1] = target: T1, human amylin receptor (calcitonin receptor co-expressed with receptor activity modifying protein, RAMP3) (hAMYR3) (Homo sapiens, UniProt O60896+P30988); assay: cAMP production in 1321N1 cells with stable recombinant expression of human amylin receptor (hAMYR3); format: cell-based; settings: for Ratio (selectivity hAMYR vs hCTR, ratio of EC50 values at the two receptors): EC50 hCTR / EC50 hAMYR3; for EC50: cAMP, 1321N1 cells, assay buffer with 0.1% BSA, read-out: EC50 (pM) hAMYR3
# T1 construct: expressed in transfected cells
# T1 sequence (P30988 25-474): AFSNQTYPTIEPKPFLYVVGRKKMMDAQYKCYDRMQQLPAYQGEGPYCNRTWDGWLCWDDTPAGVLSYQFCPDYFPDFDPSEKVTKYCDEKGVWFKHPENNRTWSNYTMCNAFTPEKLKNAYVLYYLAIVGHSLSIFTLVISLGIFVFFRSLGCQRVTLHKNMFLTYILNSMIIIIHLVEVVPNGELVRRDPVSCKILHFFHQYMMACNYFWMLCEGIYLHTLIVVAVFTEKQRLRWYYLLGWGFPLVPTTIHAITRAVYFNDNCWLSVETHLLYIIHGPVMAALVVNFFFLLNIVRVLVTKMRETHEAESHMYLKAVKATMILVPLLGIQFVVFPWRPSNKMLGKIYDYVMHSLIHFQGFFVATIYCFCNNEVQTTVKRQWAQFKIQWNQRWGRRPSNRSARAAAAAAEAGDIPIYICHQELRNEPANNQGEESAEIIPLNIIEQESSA
# T1 sequence (O60896 24-148 partner): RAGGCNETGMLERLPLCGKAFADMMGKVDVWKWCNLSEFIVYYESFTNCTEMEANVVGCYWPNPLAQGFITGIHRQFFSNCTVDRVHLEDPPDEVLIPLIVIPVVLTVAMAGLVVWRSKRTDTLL
# Method in brief: (§1)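 Receptor-expressing cells (human receptors in 1321N1, rat receptors in HEK) incubated 30 min at room temperature with peptide in HBSS/HEPES pH 7.4, 0.1% BSA, 0.5 mM IBMX. cAMP read by HTRF; EC50 from 4-parameter fit as % of maximal amylin or calcitonin response.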
# [2] = target: T2, human calcitonin receptor (hCTR) (Homo sapiens, UniProt P30988); assay: cAMP production in 1321N1 cells with stable recombinant expression of human calcitonin receptor (hCTR); format: cell-based; settings: cAMP, 1321N1 cells, assay buffer with 0.1% BSA; read-out: EC50 (pM) hCTR
# T2 construct: expressed in transfected cells
# T2 sequence (P30988 25-474): T1 sequence (P30988 25-474)
# Method in brief: as §1
# [3] = Thioflavin T fibrillation assay; format: physicochemical; settings: ThT fibrillation assay; peptide 1 mg/mL in 25 mM sodium acetate buffer pH 4.0; 6 days at 37 °C with shaking; >144 h = no increase
# Description: Peptide aggregation that form fibrils is an indication of physical instability. Fibril formation in solution poses a significant risk for the stability of injectable peptide drug products. Thioflavin T (ThT) fibrillation assay is a useful tool to assess the aggregation kinetics of a peptide or protein under accelerated and stressed conditions that can be used to forecast the long-term viability of a compound in solution. ThT can selectively bind amyloid fibrils and the resultant complex emits strong fluorescence signal at 482 nm when excited at 450 nm (Anal Biochem. 1989 Mar;177(2):244-9). Monitoring of the change in fluorescence signal is an established method to study the fibril forming potential of peptides and proteins. ThT (purchased from Sigma Aldrich) stock solution is prepared by dissolving the ThT powder in Milli-Q water and filtered to obtain a 0.25 mM solution. The concentration of the solution is measured at 412 nm using an extinction coefficient of 36 mM^−1cm^−1. Test peptides were dissolved at 1 mg/mL in 25 mM sodium acetate buffer pH 4.0. 100 μL aliquot of peptide solution and 5 μL aliquot of ThT solution were placed in a clear bottom black fluorescence 96-well plate. 5 replicates of each test samples were placed in zo the same row of the plate. Buffer was placed in control wells for baseline correction. All empty wells were filled with water to prevent evaporation. The plate was sealed with aluminium seal and placed in fluorescence plate reader and incubated for 6 days at 37 ° C. with intermittent orbital shaking at 500 to 750 rpm. The fluorescence intensity was measured every 30 min using excitation at 444 nm and emission at 480 nm. The fibril forming potential of the test peptides was determined by measuring the average time taken to detect an increase in baseline corrected fluorescence intensity.
"Ratio (selectivity hAMYR vs hCTR, ratio of EC50 values at the two receptors) [1]",EC50 [1] [pM],EC50 [2] [pM],Time taken to detect increase in fluorescence intensity [3] [h],Compound
19,365,7080,>144,"CC[C@H](C)[C@H](NC(=O)[C@@H]1CCCN1C(=O)CNC(=O)[C@](C)(Cc1ccccc1)NC(=O)[C@H](CC(N)=O)NC(=O)[C@H](CC(N)=O)NC(=O)[C@H](CO)NC(=O)[C@H](CO)NC(=O)[C@H](Cc1c[nH]cn1)NC(=O)[C@H](CCCNC(=N)N)NC(=O)[C@H](CC(C)C)NC(=O)[C@H](Cc1ccccc1)NC(=O)[C@H](CC(N)=O)NC(=O)[C@H](C)NC(=O)[C@H](CC(C)C)NC(=O)[C@H](CCCNC(=N)N)NC(=O)[C@H](CCC(N)=O)NC(=O)[C@@H](NC(=O)[C@H](C)NC(=O)[C@@H]1CSSC[C@H](NC(=O)[C@@H](N)CCCCNC(=O)COCCOCCNC(=O)COCCOCCNC(=O)CC[C@H](NC(=O)CCCCCCCCCCCCCCCCC(=O)O)C(=O)O)C(=O)N[C@@H](CC(N)=O)C(=O)N[C@@H]([C@@H](C)O)C(=O)N[C@@H](C)C(=O)N[C@@H]([C@@H](C)O)C(=O)N1)[C@@H](C)O)C(=O)N[C@@H](CC(C)C)C(=O)N1CCC[C@H]1C(=O)N1CCC[C@H]1C(=O)N[C@H](C(=O)N[C@@H](CCC(=O)O)C(=O)N[C@H](C(=O)NCC(=O)N[C@@H](CO)C(=O)N[C@@H](CC(N)=O)C(=O)N[C@H](C(=O)N[C@@H](Cc1ccc(O)cc1)C(N)=O)[C@@H](C)O)C(C)C)[C@@H](C)O [Peptide 17, K(O2Oc-O2Oc-γE-C18diacid)[CNTATC]ATQRLANFLRHSSNN(αMePhe)GPILPPTEVGSNTY-amide] (H-K([AEEA-AEEA-γGlu-C18 diacid])CNTATCATQRLANFLRHSSNN[αMeF]GPILPPTEVGSNTY-NH2; disulfide 2-7; N-terminus assumed)"
23,390,9140,45,"CC[C@H](C)[C@H](NC(=O)[C@@H]1CCCN1C(=O)CNC(=O)[C@H](Cc1ccccc1)NC(=O)[C@H](CC(N)=O)NC(=O)[C@H](CCN)NC(=O)[C@H](CO)NC(=O)[C@H](CO)NC(=O)[C@H](Cc1c[nH]cn1)NC(=O)[C@@H](NC(=O)[C@H](CC(C)C)NC(=O)[C@H](Cc1ccccc1)NC(=O)[C@H](CC(N)=O)NC(=O)[C@H](C)NC(=O)[C@H](CC(C)C)NC(=O)[C@H](CCCNC(=N)N)NC(=O)[C@H](CCC(N)=O)NC(=O)[C@@H](NC(=O)[C@H](C)NC(=O)[C@@H]1CSSC[C@H](NC(=O)[C@H](CCCCN)NC(=O)[C@@H](N)CCCCNC(=O)CC[C@H](NC(=O)CCCCCCCCCCCCCCCCC(=O)O)C(=O)O)C(=O)N[C@@H](CC(N)=O)C(=O)N[C@@H]([C@@H](C)O)C(=O)N[C@@H](C)C(=O)N[C@@H]([C@@H](C)O)C(=O)N1)[C@@H](C)O)C(C)C)C(=O)N[C@@H](CC(C)C)C(=O)N1CCC[C@H]1C(=O)N1CCC[C@H]1C(=O)N[C@H](C(=O)N[C@@H](CCC(=O)O)C(=O)N[C@H](C(=O)NCC(=O)N[C@@H](CO)C(=O)N[C@@H](CC(N)=O)C(=O)N[C@H](C(=O)N[C@@H](Cc1ccc(O)cc1)C(N)=O)[C@@H](C)O)C(C)C)[C@@H](C)O [Peptide 28, K(γE-C18diacid)K[CNTATC]ATQRLANFLVHSS(Dab)NFGPILPPTEVGSNTY-amide] (H-K([γGlu-C18 diacid])KCNTATCATQRLANFLVHSS[Dab]NFGPILPPTEVGSNTY-NH2; disulfide 3-8; N-terminus assumed)"
26,598,15800,>144,CC[C@H](C)[C@H](NC(=O)[C@@H]1CCCN1C(=O)CNC(=O)[C@H](Cc1ccccc1)NC(=O)[C@H](CC(N)=O)NC(=O)[C@H](CC(N)=O)NC(=O)[C@H](CO)NC(=O)[C@H](CO)NC(=O)[C@H](Cc1c[nH]cn1)NC(=O)[C@@H](NC(=O)[C@H](CC(C)C)NC(=O)[C@H](Cc1ccccc1)NC(=O)[C@H](CCN)NC(=O)[C@H](C)NC(=O)[C@H](CC(C)C)NC(=O)[C@H](CCCNC(=N)N)NC(=O)[C@H](CCC(N)=O)NC(=O)[C@@H](NC(=O)[C@H](C)NC(=O)[C@@H]1CSSC[C@H](NC(=O)[C@H](CCCCN)NC(=O)[C@@H](N)CCCCNC(=O)CC[C@H](NC(=O)CCCCCCCCCCCCCCCCC(=O)O)C(=O)O)C(=O)N[C@@H](CC(N)=O)C(=O)N[C@@H]([C@@H](C)O)C(=O)N[C@@H](C)C(=O)N[C@@H]([C@@H](C)O)C(=O)N1)[C@@H](C)O)C(C)C)C(=O)N[C@@H](CC(C)C)C(=O)N1CCC[C@H]1C(=O)N1CCC[C@H]1C(=O)N[C@H](C(=O)N[C@@H](CC(N)=O)C(=O)N[C@H](C(=O)NCC(=O)N[C@@H](CO)C(=O)N[C@@H](CC(N)=O)C(=O)N[C@H](C(=O)N[C@@H](Cc1ccc(O)cc1)C(N)=O)[C@@H](C)O)C(C)C)[C@@H](C)O [Peptide 33] (H-K([γGlu-C18 diacid])KCNTATCATQRLA[Dab]FLVHSSNNFGPILPPTNVGSNTY-NH2; disulfide 3-8; N-terminus assumed)
12,161,1880,<5,"CC[C@H](C)[C@H](NC(=O)[C@@H]1CCCN1C(=O)CNC(=O)[C@H](Cc1ccccc1)NC(=O)[C@H](CC(N)=O)NC(=O)[C@H](CC(N)=O)NC(=O)[C@H](CO)NC(=O)[C@H](CO)NC(=O)[C@H](Cc1c[nH]cn1)NC(=O)[C@@H](NC(=O)[C@H](CC(C)C)NC(=O)[C@H](Cc1ccccc1)NC(=O)[C@H](CC(N)=O)NC(=O)[C@H](C)NC(=O)[C@H](CC(C)C)NC(=O)[C@H](CCCNC(=N)N)NC(=O)[C@H](CCC(N)=O)NC(=O)[C@@H](NC(=O)[C@H](C)NC(=O)[C@@H]1CSSC[C@H](NC(=O)[C@@H](N)CCCCNC(=O)CC[C@H](NC(=O)CCCCCCCCCCCCCCCCC(=O)O)C(=O)O)C(=O)N[C@@H](CC(N)=O)C(=O)N[C@@H]([C@@H](C)O)C(=O)N[C@@H](C)C(=O)N[C@@H]([C@@H](C)O)C(=O)N1)[C@@H](C)O)C(C)C)C(=O)N[C@H](CC(C)C)C(=O)N1CCC[C@H]1C(=O)N1CCC[C@H]1C(=O)N[C@H](C(=O)N[C@@H](CC(N)=O)C(=O)N[C@H](C(=O)NCC(=O)N[C@@H](CO)C(=O)N[C@@H](CC(N)=O)C(=O)N[C@H](C(=O)N[C@@H](Cc1ccc(O)cc1)C(N)=O)[C@@H](C)O)C(C)C)[C@@H](C)O [Peptide 103, K(γE-C18diacid)[CNTATC]ATQRLANFLVHSSNNFGPI(dL)PPTNVGSNTY-amide] (H-K([γGlu-C18 diacid])CNTATCATQRLANFLVHSSNNFGPI[dL]PPTNVGSNTY-NH2; disulfide 2-7; N-terminus assumed)"
